Measurements as given in article PMC11768344 (Pharmaceutics, 2024).
≈ marks a conversion by molar mass, not a printed value. Where two headings read alike, the source gives them in different places.

Key:
[1] = no reference given; cited from earlier work
[2] = in vitro drug release, inverted-cup method; format: physicochemical; conditions: for solubility: PBS pH 7.4 with 0.25% SDS (release medium), pH 7.4, read-out: solubility in the release media
Experimental: In a preliminary study, the release of ROP-ST from its oil solution was investigated at 25 °C using the dialysis method. Briefly, 0.5 mL of ROP-ST oil solution was placed into a dialysis bag (MWCO: 14 kDa) and immersed into 150 mL of PBS solution (pH 7.4) with 0.5% sodium dodecyl sulfate (SDS). The dialysis media were stirred with a magnetic bar at 100 r/min. An aliquot (1 mL) was withdrawn at predetermined time intervals, and ROP-ST in the samples was quantified using HPLC−UV. […] Therefore, an “inverted-cup” method was utilized in this study to investigate the release profile of ROP-ST (Figure 3a). Briefly, a beaker containing 150 mL of PBS solution (pH 7.4, with 0.25% SDS) as the release medium was placed on a magnetic stirrer and stirred continuously at 100 r/min at room temperature (25 °C). A transparent glass cylinder (inner diameter: 1 cm) with two open endings was placed vertically in the beaker, with one ending immersed in the PBS solution and the other ending exposed to air. Then, 1 mL of ROP-ST oil solution was added to a glass cylinder, and the ending exposed in air was sealed with a plastic thin-film. In the meantime, the beaker was also sealed with a plastic thin-film. At predetermined time intervals, an aliquot (1 mL) of the release medium were withdrawn by a syringe, and 1 mL of fresh release medium was immediately replenished. The concentration of ROP-ST in the samples was determined by HPLC−UV, and the cumulative release of ROP-ST was calculated accordingly. The experiment was performed in triplicates.
For comparison, the release of an ROP-free base from its soybean oil solution and the release of aripiprazole lauroxil (APL) from its soybean oil solution were also investigated. […] To prepare the APL oil solution, 90.4 mg of APL was dissolved and mixed in 5 mL of soybean oil. The concentration of APL was 18.08 mg/mL (27.37 mM). […] Moreover, the marketed APL injectables are suspensions; therefore, the release of APL from its suspension was also studied. This was carried out by placing 5.89 mg of APL into 150 mL of PBS7.4 solution directly, which contained 0.25% SDS. The solution was also stirred and sampled in the same way as described above. APL was analyzed according to the previously reported method.

[3] = saturated solubility (shake, 37 °C, 72 h, HPLC-UV); format: physicochemical; conditions: for SPBS 7.4, the solubility in PBS 7.4 solution: PBS pH 7.4, 37 °C
Experimental: After centrifugation at 12,000 r/min for 10 min (TGL-16C centrifuge; Anting Scientific Instrument Company, Shanghai, China), the supernatant was withdrawn, and the solution was filtered through a syringe filter (pore size: 0.45 μm). […] The experiments were performed in triplicates.
Quantification of ROP-ST was performed using an HPLC−UV system consisting of an LC-10AT VP pump, an SPD-10A VP UV–vis detector, a CTO-10A column oven, a SIL-10AF autosampler, and an SCL-10A VP controller (Shimadzu Corporation; Kyoto, Japan). Data were collected and processed using LC-solution software. Isocratic elution was performed on a Diamonsil C18 column (150 mm × 4.6 mm I.D., 5 µm), and an EasyGuard C18 guard column (10 × 4.0 mm I.D., 5 µm) was mounted upstream from the analytical column (Dikma Technologies; Beijing, China). The column temperature was kept at 35 °C, and the UV absorbance wavelength was set at 215 nm. The mobile phase, comprising 88% (v/v) acetonitrile and 12% (v/v) water with 0.1% (v/v) trifluoroacetic acid, was used after filtering through a filter membrane (pore size: 0.45 μm) and degassing within an ultrasonic water bath (KQ-500VDE Ultrasonic Cleaner; Kunshan, China) for 40 min. The flow rate was maintained at 1.0 mL/min, and the injection volume was 20 µL. The calibration curve was linear in the range of 1–200 μM, and the correlation coefficient was >0.9998. […] The lower limit of quantification (LOQ) of ROP-ST was 1 μM (equal to 0.57 μg/mL). The validation of the HPLC method can be found in Supplemental Materials.
Briefly, the column temperature was kept at 35 °C, and the UV absorbance wavelength was set at 240 nm. The mobile phase comprised 50% (v/v) acetonitrile and 50% (v/v) phosphate buffer. The phosphate buffer was prepared by mixing 1.3 mL of sodium dihydrogen phosphate (1 mol/L) with 32.5 mL of disodium hydrogen phosphate (0.5 mol/L) and diluting to 1 L by water, and then the pH value was adjusted to 8.0. The flow rate was maintained at 1.0 mL/min, and the injection volume was 20 µL. The validation of the quantification method can be found in the Supplementary Materials.

[4] = n-octanol/water partition coefficient (experimental Log P); format: physicochemical; conditions: 37 °C, read-out: Log Pexp., experimental Log P
Experimental: Approximately 1 mg of ROP-ST and ROP-free base were dissolved in a bi-phase mixture of water-saturated n-octanol solution and n-octanol-saturated water (5 mL:5 mL), respectively. After equilibration in a water bath shaker (37 °C) for 24 h, the two phases were sampled separately and diluted with acetonitrile. […] The Log P value of each compound was calculated accordingly. The experiments were performed in triplicates.

[5] = plasma stability study of ROP-ST; format: in vitro ADME, rat; conditions: 25 °C
Experimental: Healthy male Sprague–Dawley rats (SD rats, 200 ± 20 g) were provided by the Animal Experiment Center of Nantong University (protocol code of the ethical proof: S20240617-005). Blood samples were collected from the orbital cavity and centrifuged at 10,000 r/min for 10 min (TGL-16C centrifuge; Anting Scientific Instrument Company, Shanghai, China) to obtain blank plasma. The blank plasma was mixed with saline to obtain plasma solutions of 10%, 20%, and 40% (v/v) plasma, respectively. A half milliliter of saline, or 10%, 20%, and 40% plasma solution, was added to an EP tube, respectively, followed by adding 50 μL of methanolic solution of ROP-ST (concentration: 1100 μM) to each tube. The tubes were sealed and placed in a water bath shaker (37 °C). Three tubes were taken at each predetermined time point (0, 10, 20, 30, 40, 50, 60, 70, 80, and 90 min, respectively), rapidly frozen in liquid nitrogen to terminate the enzymatic reaction, and then stored at −80 °C. The samples were lyophilized to obtain dry residues. Before analysis, the residues were dissolved in methanol and subjected to ultrasonic treatment for 30 s. The resulting solution was filtered through a filter membrane (pore size: 0.45 μm), and the remaining levels of ROP-ST in subsequent filtrates were quantified by HPLC−UV. The hydrolysis rate constants (kobs) of the prodrug were calculated by plotting the natural logarithm of the remaining percentage against time. The corresponding half-life (t1/2) was then calculated (t1/2 = ln2/kobs). The experiment was conducted in triplicates.
(§1) The enzymatic stability of ROP-ST was examined by placing the methanolic solution of the prodrug into rat plasma solution and porcine liver esterase solution. […] The hydrolysis rate constants (kobs) of the prodrug were calculated by plotting the natural logarithm of the remaining percentage against time. The corresponding half-life (t1/2) was then calculated (t1/2 = ln2/kobs). Data at 25 °C were fitted approximately to a first-order kinetic equation for the prodrug loss (Figure 4). It should be noted that the actual hydrolytic kinetics of such lipophilic prodrugs by enzymes could be complicated in vitro and in vivo, which may not fully comply with the first-order kinetics. […] The rate of enzymatic cleavage increases as the concentration of rat plasma or the concentration of porcine liver esterase increases. In fact, the injection site of ROP-ST is muscle, which contains less esterase than the plasma. Therefore, it is logical to hypothesize that the bioconversion rate of ROP-ST in the muscle should be slower, which enables sustained release and long-acting efficacy.

[6] = liver esterase stability study of ROP-ST; format: in vitro ADME, porcine; conditions: 0 U/mL, phosphate buffer (pH 8.0) without liver esterase, 25 °C
Experimental: (§2) Porcine liver esterase solutions were prepared by dissolving 4, 8, and 16 mg of porcine liver esterase powder (15 U/mg) into 12 mL of phosphate buffer (pH 8.0) to obtain porcine liver esterase solutions with the concentrations of 5, 10 and 20 U/mL, respectively. A half milliliter of blank buffer solution (pH 8 without enzyme) or porcine liver esterase solutions with the concentration of 5, 10, or 20 U/mL, respectively, was added to an EP tube, followed by adding 50 μL of methanolic solution of ROP-ST (concentration: 1100 μM) to each tube. The tubes were sealed and placed in a water bath shaker (25 °C) according to product instructions and a previous report. Three tubes were taken at each predetermined time point (0, 30, 45, 60, 75, 90, 105, and 120 min, respectively), rapidly frozen in liquid nitrogen to terminate the enzymatic reaction, and then stored at −80 °C. The subsequent treatments of the samples complied with the procedures described in “Section 2.5.1.”. The experiment was conducted in triplicates.
as §1

[7] = test system: porcine liver esterase; experiment: liver esterase stability study of ROP-ST; format: in vitro ADME; conditions: for half-life at 100 µM: pig, porcine liver esterase solution
Experimental: as §2, §1

[8] = in vitro drug release, dialysis method (preliminary); format: physicochemical; conditions: oil solution in dialysis bag MWCO 14 kDa, PBS pH 7.4 with 0.5% SDS, 25 °C, until 96 h
Experimental: In a preliminary study, the release of ROP-ST from its oil solution was investigated at 25 °C using the dialysis method. Briefly, 0.5 mL of ROP-ST oil solution was placed into a dialysis bag (MWCO: 14 kDa) and immersed into 150 mL of PBS solution (pH 7.4) with 0.5% sodium dodecyl sulfate (SDS). The dialysis media were stirred with a magnetic bar at 100 r/min. An aliquot (1 mL) was withdrawn at predetermined time intervals, and ROP-ST in the samples was quantified using HPLC−UV. […] Therefore, an “inverted-cup” method was utilized in this study to investigate the release profile of ROP-ST (Figure 3a). Briefly, a beaker containing 150 mL of PBS solution (pH 7.4, with 0.25% SDS) as the release medium was placed on a magnetic stirrer and stirred continuously at 100 r/min at room temperature (25 °C). A transparent glass cylinder (inner diameter: 1 cm) with two open endings was placed vertically in the beaker, with one ending immersed in the PBS solution and the other ending exposed to air. Then, 1 mL of ROP-ST oil solution was added to a glass cylinder, and the ending exposed in air was sealed with a plastic thin-film. In the meantime, the beaker was also sealed with a plastic thin-film. […] The concentration of ROP-ST in the samples was determined by HPLC−UV, and the cumulative release of ROP-ST was calculated accordingly. […]

[9] = 0% rat plasma (saline solution without rat plasma)
[10] = 5 U/mL porcine liver esterase, pH 8.0, 25 °C
[11] = 10 U/mL porcine liver esterase, pH 8.0, 25 °C
[12] = 20 U/mL porcine liver esterase, pH 8.0, 25 °C

Compound: O=C1CCc2ccc(OCCCCN3CCN(c4cccc(Cl)c4Cl)CC3)cc2N1 [aripiprazole]
- pKa [1]: 7.46

Compound: CCCCCCCCCCCC(=O)OCN1C(=O)CCc2ccc(OCCCCN3CCN(c4cccc(Cl)c4Cl)CC3)cc21 [APL, aripiprazole lauroxil, reference compound]
- solubility [2]: ~209 µM (≈ 138 µg/mL)

Compound: CCCN1CCCC[C@H]1C(=O)Nc1c(C)cccc1C [ROP, Ropivacaine]
- solubility at 72 h ([3]; PBS buffer pH 7.4, pH 7.4, PBS pH 7.4, 37 °C, read-out: SPBS 7.4, the solubility in PBS 7.4 solution): ~1000 µM
- solubility at 72 h ([3]; PBS buffer pH 7.4, pH 7.4, PBS pH 7.4, 37 °C, read-out: solubility in PBS 7.4 solution): ~270 µg/mL
- SPBS 7.4, the solubility in PBS 7.4 solution [3]: 1040 ± 40 µM
- solubility at 72 h ([3]; soybean oil, 37 °C, read-out: Soil, the solubility in soybean oil): 37000 ± 530 µM
- logP at 24 h [4]: 1.88 ± 0.17
- released in the first 12 h ([2]; from soybean oil solution 27.37 mM, PBS pH 7.4 with 0.25% SDS, 25 °C): ~80%

Compound: CCCCCCCCCCCCCCCCCC(=O)OCN(C(=O)C1CCCCN1CCC)c1c(C)cccc1C (stereo not drawn) [ROP-ST, ropivacaine stearoxil]
- SPBS 7.4, the solubility in PBS 7.4 solution [3]: <LOQ
- Soil, the solubility in soybean oil ([3]; soybean oil, 37 °C): Miscible
- half-life at 100 µM [5, 9]: 82.2 ± 26.2 h
- k × 10^3, first-order hydrolysis rate constant [5, 9]: 9.1 ± 3.2 h^−1
- k × 10^3, first-order hydrolysis rate constant ([5]; 10% (v/v) rat plasma): 436.6 ± 17.2 h^−1
- k × 10^3, first-order hydrolysis rate constant ([5]; 20% (v/v) rat plasma): 665.0 ± 35.2 h^−1
- k × 10^3, first-order hydrolysis rate constant ([5]; 40% (v/v) rat plasma): 666.9 ± 30.7 h^−1
- half-life at 100 µM ([5]; male, Sprague-Dawley, 10% (v/v) rat plasma in saline, 10% (v/v) rat plasma): 1.59 ± 0.06 h
- half-life at 100 µM ([5]; male, Sprague-Dawley, 20% (v/v) rat plasma in saline, 20% (v/v) rat plasma): 1.04 ± 0.06 h
- half-life at 100 µM ([5]; male, Sprague-Dawley, 40% (v/v) rat plasma in saline, 40% (v/v) rat plasma): 1.04 ± 0.05 h
- half-life at 100 µM [6]: 88.4 ± 14.9 h
- k × 10^3, first-order hydrolysis rate constant ([7]; 0 U/mL, phosphate buffer (pH 8.0) without liver esterase, 25 °C): 8.0 ±1.3 h^−1
- k × 10^3, first-order hydrolysis rate constant [7, 10]: 107.9 ± 29.0 h^−1
- k × 10^3, first-order hydrolysis rate constant [7, 11]: 159.6 ±1.3 h^−1
- k × 10^3, first-order hydrolysis rate constant [7, 12]: 226.1 ± 24.7 h^−1
- half-life at 100 µM [7, 10]: 6.78 ± 1.99 h
- half-life at 100 µM [7, 11]: 4.34 ± 0.03 h
- half-life at 100 µM [7, 12]: 3.09 ± 0.36 h
- solubility [2]: ~1500 µM (≈ 856 µg/mL)
- total cumulative release ([2]; from soybean oil solution 27.37 mM, PBS pH 7.4 with 0.25% SDS, 25 °C, 72 h): 69.55%
- duration of sustained release ([2]; from soybean oil solution, PBS pH 7.4 with 0.25% SDS, 25 °C): more than 72 h
- ROP-ST detected in dialysis medium [8]: no ROP-ST was detected
